Source: ChEMBL document CHEMBL4130636, “Contilisant, a Tetratarget Small Molecule for Alzheimer's Disease Therapy Combining Cholinesterase, Monoamine Oxidase Inhibition, and H3R Antagonism with S1R Agonism Profile” (J Med Chem, 2018)
Each block holds one compound with its values, some of them ahead of it. Activity calls are given as the source filed them. The calls are words filed in the database; no cut-off is given here.

Assays:
Cholinesterase = Cholinesterase (Homo sapiens, UniProt P06276); experiment: Inhibition of human plasma BuChE using acetylthiocholine iodide as substrate by Ellman's method
Acetylcholinesterase = Acetylcholinesterase (Homo sapiens, UniProt P22303); experiment: Inhibition of recombinant human AChE using acetylthiocholine iodide as substrate by Ellman's method
Histamine H3 receptor = Histamine H3 receptor (Homo sapiens, UniProt Q9Y5N1); experiment: Displacement of [3H]-N-alpha-methylhistamine from human H3R expressed in HEK293 cell membranes after 90 mins by liquid scintillation counting method
[1] = biological target: Sigma non-opioid intracellular receptor 1 (Homo sapiens, UniProt Q99720); experiment: Displacement of (+)-[3H]pentazocine from human sigma1 receptor expressed in HEK293 cell membranes after 60 mins by liquid scintillation counting method
[2] = biological target: T1, Sigma intracellular receptor 2 (Rattus norvegicus, UniProt Q5U3Y7); experiment: Displacement of [3H]DTG from sigma2 receptor in rat liver membranes after 60 mins by liquid scintillation counting method; type: cell membranes, Membrane
T1 sequence (Q5U3Y7 whole entry): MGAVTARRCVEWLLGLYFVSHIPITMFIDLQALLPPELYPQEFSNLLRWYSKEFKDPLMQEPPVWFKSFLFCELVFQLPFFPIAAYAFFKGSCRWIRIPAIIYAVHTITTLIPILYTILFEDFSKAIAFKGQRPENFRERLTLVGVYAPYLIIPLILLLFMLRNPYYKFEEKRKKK

[3] = biological target: T2, Vesicular acetylcholine transporter (Rattus norvegicus, UniProt Q62666); experiment: Displacement of (-)-[3H]vesamicol from rat VAChT expressed in rat PC12 cell membranes after 60 mins by liquid scintillation counting method
T2 sequence (Q62666 whole entry): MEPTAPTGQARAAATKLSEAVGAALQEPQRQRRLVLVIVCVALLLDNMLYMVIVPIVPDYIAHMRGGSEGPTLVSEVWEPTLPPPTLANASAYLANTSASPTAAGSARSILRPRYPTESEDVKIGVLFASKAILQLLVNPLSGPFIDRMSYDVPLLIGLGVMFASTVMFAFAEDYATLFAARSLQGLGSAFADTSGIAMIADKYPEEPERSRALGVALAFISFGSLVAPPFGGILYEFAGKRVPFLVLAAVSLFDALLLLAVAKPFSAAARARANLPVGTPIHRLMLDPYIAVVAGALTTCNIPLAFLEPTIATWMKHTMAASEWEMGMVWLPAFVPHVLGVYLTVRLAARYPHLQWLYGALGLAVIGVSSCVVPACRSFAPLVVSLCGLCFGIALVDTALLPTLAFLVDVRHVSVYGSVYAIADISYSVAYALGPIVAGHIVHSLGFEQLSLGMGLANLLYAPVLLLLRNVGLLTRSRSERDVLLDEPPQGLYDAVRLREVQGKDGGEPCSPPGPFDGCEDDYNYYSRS

Mus musculus [4] = experiment: In vivo agonist activity at sigma1 receptor in sc dosed capsaicin-induced mechanical allodynia CD-1 mouse model assessed as decrease in paw withdrawal latency pretreated for 30 mins followed by capsaicin treatment measured after 2 hrs; type: functional, organism-based
Mus musculus [5] = experiment: Cognitive enhancing effect in Balb/c mouse assessed as protection against amyloid beta (1 to 42) oligomers-induced memory damage at 1 to 10 mg/kg, po qd via gavage for 17 days starting from 24 hrs post amyloid beta (1 to 42) oligomer treatment measured on day 14 by Y-maze test; type: functional, organism-based
Mus musculus [6] = experiment: Induction of memory damage in Balb/c mouse at 1 to 10 mg/kg, po qd via gavage for 17 measured on day 14 by Y-maze test; type: organism-based; settings: in vivo
Mus musculus [7] = experiment: (§1) Cognitive enhancing effect in amyloid beta (1 to 42)-induced dementia Balb/c mouse model assessed as protection against spatial memory impairment by measuring latency to find food on second, third and fourth days of test at 1 to 10 mg/kg, po qd via gavage for 17 days starting from 24 hrs post amyloid beta (1 to 42) oligomer treatment measured on day 14 by radial arm-maze test; type: functional, organism-based
Mus musculus [8] = experiment: as §1, with “reduction in total errors” for “latency”; type: functional, organism-based
[9] = Selectivity ratio of Ki for sigma2 receptor in rat liver membranes to Ki for human sigma1 receptor expressed in HEK293 cell membranes; type: cell-based
Mus musculus [10] = experiment: In vivo antagonist activity at sigma1 receptor in sc dosed capsaicin-induced mechanical allodynia CD-1 mouse model assessed as increase in paw withdrawal latency pretreated for 30 mins followed by capsaicin treatment measured after 2 hrs; type: functional, organism-based
Mus musculus [11] = experiment: as §1, with “on” for “on second, third and”, “fourth day” for “fourth days”; type: functional, organism-based
Mus musculus [12] = experiment: as §1, with “reduction in total errors” for “latency”, “on” for “on second,”; type: functional, organism-based
Mus musculus [13] = experiment: Cognitive enhancing effect in Balb/c mouse assessed as protection against amyloid beta (1 to 42) oligomers-induced memory damage at 10 mg/kg, po qd via gavage for 17 days starting from 24 hrs post amyloid beta (1 to 42) oligomer treatment measured on day 14 by Y-maze test; type: functional, organism-based
Mus musculus [14] = experiment: as §1, with “on” for “on second,”, “at” for “at 1 to”; type: functional, organism-based
Mus musculus [15] = experiment: as §1, with “reduction in total errors” for “latency”, “on” for “on second,”, “at” for “at 1 to”; type: functional, organism-based

Sequence of Sigma non-opioid intracellular receptor 1 (Q99720 whole entry): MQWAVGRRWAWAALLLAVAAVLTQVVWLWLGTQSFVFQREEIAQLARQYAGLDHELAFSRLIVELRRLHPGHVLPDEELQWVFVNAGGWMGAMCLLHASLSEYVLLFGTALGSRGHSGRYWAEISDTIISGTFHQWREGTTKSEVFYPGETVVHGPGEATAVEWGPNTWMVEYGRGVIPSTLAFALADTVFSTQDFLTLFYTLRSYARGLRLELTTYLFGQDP
Sequence of Acetylcholinesterase (P22303 whole entry): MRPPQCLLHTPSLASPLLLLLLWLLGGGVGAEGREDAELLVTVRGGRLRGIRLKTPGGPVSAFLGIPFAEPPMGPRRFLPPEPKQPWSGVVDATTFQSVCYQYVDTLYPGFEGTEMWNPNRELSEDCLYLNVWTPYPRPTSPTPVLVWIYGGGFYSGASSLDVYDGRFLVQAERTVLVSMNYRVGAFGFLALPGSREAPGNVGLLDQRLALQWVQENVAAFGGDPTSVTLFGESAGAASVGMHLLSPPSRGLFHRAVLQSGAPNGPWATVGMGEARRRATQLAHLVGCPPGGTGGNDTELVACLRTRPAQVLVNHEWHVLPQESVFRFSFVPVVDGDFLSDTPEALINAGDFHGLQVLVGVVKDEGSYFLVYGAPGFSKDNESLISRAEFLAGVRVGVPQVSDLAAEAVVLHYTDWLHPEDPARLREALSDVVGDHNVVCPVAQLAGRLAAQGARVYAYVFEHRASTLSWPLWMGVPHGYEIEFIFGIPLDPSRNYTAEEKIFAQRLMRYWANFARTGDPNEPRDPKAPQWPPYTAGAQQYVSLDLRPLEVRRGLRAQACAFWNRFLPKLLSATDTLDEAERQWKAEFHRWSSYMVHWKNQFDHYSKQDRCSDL
Sequence of Histamine H3 receptor (Q9Y5N1 whole entry): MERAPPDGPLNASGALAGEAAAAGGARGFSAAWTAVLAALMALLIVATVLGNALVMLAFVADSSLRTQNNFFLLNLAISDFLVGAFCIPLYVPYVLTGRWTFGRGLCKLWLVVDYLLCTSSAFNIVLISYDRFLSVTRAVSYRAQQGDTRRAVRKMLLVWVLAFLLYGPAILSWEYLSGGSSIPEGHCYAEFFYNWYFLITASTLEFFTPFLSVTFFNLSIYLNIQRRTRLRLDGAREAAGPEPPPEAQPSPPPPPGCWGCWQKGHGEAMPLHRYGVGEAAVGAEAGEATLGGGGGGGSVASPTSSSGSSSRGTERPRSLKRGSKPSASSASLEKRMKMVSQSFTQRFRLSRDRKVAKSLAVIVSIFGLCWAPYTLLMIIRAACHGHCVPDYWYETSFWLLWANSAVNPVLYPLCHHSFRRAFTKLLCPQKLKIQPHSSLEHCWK
Sequence of Cholinesterase (P06276 whole entry): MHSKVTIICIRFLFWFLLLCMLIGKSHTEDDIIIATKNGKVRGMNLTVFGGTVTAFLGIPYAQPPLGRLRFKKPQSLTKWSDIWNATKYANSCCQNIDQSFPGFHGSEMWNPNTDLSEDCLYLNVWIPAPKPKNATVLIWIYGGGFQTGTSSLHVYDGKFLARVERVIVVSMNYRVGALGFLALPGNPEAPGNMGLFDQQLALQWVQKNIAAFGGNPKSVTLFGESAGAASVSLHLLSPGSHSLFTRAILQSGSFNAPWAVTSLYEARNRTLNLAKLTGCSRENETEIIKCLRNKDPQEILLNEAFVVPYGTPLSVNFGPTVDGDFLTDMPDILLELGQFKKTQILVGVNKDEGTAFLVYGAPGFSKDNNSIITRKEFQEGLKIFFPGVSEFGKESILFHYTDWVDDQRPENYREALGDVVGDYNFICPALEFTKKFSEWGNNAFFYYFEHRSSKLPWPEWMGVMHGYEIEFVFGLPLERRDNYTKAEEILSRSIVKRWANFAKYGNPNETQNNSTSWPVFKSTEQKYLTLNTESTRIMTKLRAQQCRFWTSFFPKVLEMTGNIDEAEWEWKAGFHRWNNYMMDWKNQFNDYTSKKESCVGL

SMILES: C#CCN(C)Cc1cc2cc(OCCCN3CCCCC3)ccc2n1C
IC50 (Cholinesterase): 1690 nM
IC50 (Acetylcholinesterase): 530 nM
Ki (Histamine H3 receptor): 10.8 nM
Ki [1]: 65.2 nM
Ki [2]: 326 nM
Ki [3]: 46.3 nM
Activity (Mus musculus [4]): Dose-dependent effect
Activity (Mus musculus [5]): Active
Activity (Mus musculus [6]): Non-Toxic
Activity (Mus musculus [7]): Active
Activity (Mus musculus [8]): Active

Ki [1]: 2.83 nM
Ki [2]: 50.3 nM
Ki [3]: 2.58 nM
SMILES: C#CCN(C)Cc1cc2cc(OCCCC3CCN(Cc4ccccc4)CC3)ccc2n1C
Ratio Ki [9]: 18
inhibition (Mus musculus [10]): Dose-dependent effect
Activity (Mus musculus [5]): Active
Activity (Mus musculus [11]): Active
Activity (Mus musculus [12]): Active

SMILES: OC1CCCCC1N1CCC(c2ccccc2)CC1 (racemic)
Ki [2]: 63.4 nM

Ki [2]: 62.2 nM
Ki [3]: 492 nM
SMILES: COc1ccc(CCN2CCN(CCCc3ccccc3)CC2)cc1OC [[11C]SA4503]

SMILES: COc1cc2c(cc1OC)C(=O)C(CC1CCN(Cc3ccccc3)CC1)C2 (stereo not given)
Activity (Mus musculus [13]): Active
Activity (Mus musculus [14]): Active
Activity (Mus musculus [15]): Active
